Drawing on patent US11866518B2, “Bicyclic peptide ligands specific for TSLP” (BicycleTx Limited, priority 2020, dated 2024), this text covers Kd for 7 compounds.

The target in the test is TSLP (Homo sapiens, UniProt Q969D9). In words: Human TSLP Surface Plasmon Resonance (SPR) binding assay. The arrangement: The resulting construct spCD33-6×HN-TEV-hTSLP(29-159)-Avi; 6xHN tag with TEV site (N, cleaved yes); made in house; host or cells: Expi293F cells. The note with it: biotinylated human TSLP immobilized on streptavidin chip; 20° C.; steady-state or kinetic 1:1 fit; read-out: hTSLP SPR Kd.
TSLP, sequence (Q969D9 29-159): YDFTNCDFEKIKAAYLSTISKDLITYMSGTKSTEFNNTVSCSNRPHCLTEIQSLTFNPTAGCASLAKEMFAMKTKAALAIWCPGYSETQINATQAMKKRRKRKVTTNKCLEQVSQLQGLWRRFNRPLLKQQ
One may read the Kd as the constant that tells how readily two partners part at equilibrium. For `CC(=O)N[C@H]1CSCCC(=O)N2CN3CN(C2)C(=O)CCSC[C@H](NC(=O)[C@H](CC(=O)O)NC(=O)[C@H](CCC(=O)O)NC(=O)[C@H](CC(C)C)NC(=O)[C@H](Cc2c[nH]c4ccccc24)NC(=O)[C@H](CCC(N)=O)NC1=O)C(=O)N[C@@H](Cc1c[nH]c2ccccc12)C(=O)N[C@@H](C)C(=O)NCC(=O)N[C@@H](Cc1ccccc1)C(=O)N[C@H](C(N)=O)CSCCC3=O` [Example 149, Ac-(SEQ ID NO: 108)], the dissociation constant Kd was 1.1 µM.

On to `CC[C@H](C)[C@@H]1NC(=O)[C@H]([C@@H](C)O)NC(=O)[C@@H](NC(=O)[C@H](C)N)CSCCC(=O)N2CN3CN(C2)C(=O)CCSC[C@H](NC(=O)[C@H](CC(=O)O)NC(=O)[C@H](CCC(=O)O)NC(=O)[C@H](CC(C)C)NC1=O)C(=O)N[C@@H](Cc1c[nH]c2ccccc12)C(=O)N[C@@H](CCSC)C(=O)NCC(=O)N[C@@H](Cc1ccccc1)C(=O)N[C@H](C(=O)N[C@@H](C)C(N)=O)CSCCC3=O` [Example 150, A-(SEQ ID NO: 109)-A], for which the Kd turned out to be 1.5 µM.

Take `CC(=O)N[C@H]1CSCCC(=O)N2CN3CN(C2)C(=O)CCSC[C@H](NC(=O)[C@H](CC(=O)O)NC(=O)[C@H](CCC(=O)O)NC(=O)[C@H](CC(C)C)NC(=O)[C@H](Cc2c[nH]c4ccccc24)NC(=O)[C@H](CCC(N)=O)NC1=O)C(=O)N[C@@H](Cc1c[nH]c2ccccc12)C(=O)N[C@@H](CCCNC(=N)N)C(=O)NCC(=O)N[C@@H](Cc1c(F)c(F)c(F)c(F)c1F)C(=O)N[C@H](C(N)=O)CSCCC3=O` [Example 153, Ac-(SEQ ID NO: 112)]: the Kd is 2.7 µM.

`CC(=O)N[C@H]1CSCCC(=O)N2CN3CN(C2)C(=O)CCSC[C@H](NC(=O)[C@H](CC(=O)O)NC(=O)[C@H](CCC(=O)O)NC(=O)[C@H](CC(C)C)NC(=O)[C@H](Cc2c[nH]c4ccccc24)NC(=O)[C@H](CCC(N)=O)NC1=O)C(=O)N[C@@H](Cc1c[nH]c2ccccc12)C(=O)N[C@@H](CN)C(=O)NCC(=O)N[C@@H](Cc1ccccc1)C(=O)N[C@H](C(N)=O)CSCCC3=O` [Example 155, Ac-(SEQ ID NO: 114)]: the Kd stood at 3.2 µM.

For `CC(C)C[C@@H]1NC(=O)[C@H](Cc2c[nH]c3ccccc23)NC(=O)[C@H](CCC(N)=O)NC(=O)[C@@H](N)CSCCC(=O)N2CN3CN(C2)C(=O)CCSC[C@H](NC(=O)[C@H](CC(=O)O)NC(=O)[C@H](CCC(=O)O)NC1=O)C(=O)N[C@@H](Cc1c[nH]c2ccccc12)C(=O)N[C@@H](CN)C(=O)NCC(=O)N[C@@H](Cc1ccccc1)C(=O)N[C@H](C(N)=O)CSCCC3=O` [Example 156, (SEQ ID NO: 114)], the dissociation constant (Kd) worked out at 3.3 µM.

`CC(=O)N[C@H]1CSCCC(=O)N2CN3CN(C2)C(=O)CCSC[C@H](NC(=O)[C@H](CC(=O)O)NC(=O)[C@H](CCC(=O)O)NC(=O)[C@H](CC(C)C)NC(=O)[C@H](Cc2c[nH]c4ccccc24)NC(=O)[C@H](CCC(N)=O)NC1=O)C(=O)N[C@@H](Cc1c[nH]c2ccccc12)C(=O)N[C@@H](CCCNC(=N)N)C(=O)NCC(=O)N[C@@H](Cc1ccncc1)C(=O)N[C@H](C(N)=O)CSCCC3=O` [Example 157, Ac-(SEQ ID NO: 115)]: the Kd was 3.9 µM.

As to `CC(=O)N[C@H]1CSCCC(=O)N2CN3CN(C2)C(=O)CCSC[C@H](NC(=O)[C@H](CC(=O)O)NC(=O)[C@H](CCC(=O)O)NC(=O)[C@H](CC(C)C)NC(=O)[C@H](Cc2c[nH]c4ccccc24)NC(=O)[C@H](CCC(N)=O)NC1=O)C(=O)N[C@@H](Cc1c[nH]c2ccccc12)C(=O)N[C@@H](CCCNC(=N)N)C(=O)NCC(=O)N[C@@H](Cc1cccnc1)C(=O)N[C@H](C(N)=O)CSCCC3=O` [Example 158, Ac-(SEQ ID NO: 116)], the Kd amounted to 5.4 µM.
